Biological target: T1, human 5-HT4(a) (Homo sapiens, UniProt Q13639)
T1 construct: host or cells: GeneBIAzer HTR4-CRE-bla CHO-K1 cells
Assay: Evaluation of agonistic activity in CHO-K1 cells expressing human 5-HT4(a) (GeneBIAzer HTR4-CRE-bla CHO-K1 cells, beta-lactamase fluorescence ratio, EC50 from 8 concentrations)
Format: cell-based
How it was run: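 HTR4-CRE-bla CHO-K1 cells (10^4 per well, overnight in 1% FBS medium) exposed to compound for 5 h, then beta-lactamase substrate 2 h in the dark. Fluorescence ratio at 465/535 nm after 410 nm excitation; EC50 by non-linear regression over 8 concentrations.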

T1 sequence (Q13639 1-387 isoform Q13639-2): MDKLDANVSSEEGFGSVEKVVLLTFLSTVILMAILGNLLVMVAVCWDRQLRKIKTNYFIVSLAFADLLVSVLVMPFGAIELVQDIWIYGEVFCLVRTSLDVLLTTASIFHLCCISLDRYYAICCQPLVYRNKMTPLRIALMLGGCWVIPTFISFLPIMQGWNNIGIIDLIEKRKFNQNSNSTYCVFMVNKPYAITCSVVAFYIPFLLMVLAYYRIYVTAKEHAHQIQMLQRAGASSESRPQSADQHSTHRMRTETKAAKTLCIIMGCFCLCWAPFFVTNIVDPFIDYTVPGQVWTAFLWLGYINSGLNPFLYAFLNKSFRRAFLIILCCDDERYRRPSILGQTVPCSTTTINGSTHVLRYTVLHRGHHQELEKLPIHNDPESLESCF

Structure (SMILES) | EC50
CCCCc1cc(N2CCC[C@@H](N)C2)nc(Nc2ccc(F)c([N+](=O)[O-])c2)n1 [Example 338, (R)-4-(3-aminopiperidin-1-yl)-6-butyl-N-(4-fluoro-3-nitrophenyl)pyrimidin-2-amine] | 0.014 nM
CCCCc1cc(N2CCC[C@@H](N)C2)nc(Nc2ccc(C)c([N+](=O)[O-])c2)n1 [Example 339, (R)-4-(3-aminopiperidin-1-yl)-6-butyl-N-(4-methyl-3-nitrophenyl)pyrimidin-2-amine] | 0.017 nM
CCCCc1cc(N2CCC[C@@H](N)C2)nc(Nc2ccc(N)c(C(F)(F)F)c2)n1 [Example 340, (R)—N^1-[4-(3-aminopiperidin-1-yl)-6-butylpyrimidin-2-yl]-3-(trifluoromethyl)benzene-1,4-diamine] | 0.112 nM
CCCCc1cc(N2CCC[C@@H](N)C2)nc(Nc2cc(N)cc(C#N)c2)n1 [Example 342, (R)-3-amino-5-{[4-(3-aminopiperidin-1-yl)-6-butylpyrimidin-2-yl]amino}benzonitrile] | 0.0041 nM
CCCCc1cc(N2CCC[C@@H](N)C2)nc(Nc2ccc(C)c(C(F)(F)F)c2)n1 [Example 343, (R)-4-(3-aminopiperidin-1-yl)-6-butyl-N-[4-methyl-3-(trifluoromethyl)phenyl]pyrimidin-2-amine] | 0.034 nM
CCCCc1cc(N2CCC[C@@H](N)C2)nc(Nc2ccc(C)c(F)c2)n1 [Example 344, (R)-4-(3-aminopiperidin-1-yl)-6-butyl-N-(3-fluoro-4-methylphenyl)pyrimidin-2-amine] | 0.448 nM
CCCCc1cc(N2CCC[C@@H](N)C2)nc(Nc2ccc(C)c(OC)c2)n1 [Example 345, (R)-4-(3-aminopiperidin-1-yl)-6-butyl-N-(3-methoxy-4-methylphenyl)pyrimidin-2-amine] | 0.08 nM
CCCCc1cc(N2CCC[C@@H](N)C2)nc(Nc2ccc(C)c(N)c2)n1 [Example 346, (R)—N^1-[4-(3-aminopiperidin-1-yl)-6-butylpyrimidin-2-yl]-4-methylbenzene-1,3-diamine] | 0.135 nM
CCCCc1cc(N2CCC[C@@H](N)C2)nc(Nc2ccc(C)c(C)c2)n1 [Example 347, (R)-4-(3-aminopiperidin-1-yl)-6-butyl-N-(3,4-dimethylphenyl)pyrimidin-2-amine] | 0.391 nM
CCCCc1cc(N2CCC[C@@H](N)C2)nc(Nc2ccc(F)c(C(F)(F)F)c2)n1 [Example 348, (R)-4-(3-aminopiperidin-1-yl)-6-butyl-N-[4-fluoro-3-(trifluoromethyl)phenyl]pyrimidin-2-amine] | 0.102 nM
CCCCc1cc(N2CCC[C@@H](N)C2)nc(Nc2ccc(F)c(N)c2)n1 [Example 349, (R)—N^1-[4-(3-aminopiperidin-1-yl)-6-butylpyrimidin-2-yl]-4-fluorobenzene-1,3-diamine] | 0.014 nM
CCCCc1cc(N2CCC[C@@H](N)C2)nc(Nc2ccc(N)c(C#N)c2)n1 [Example 350, (R)-2-amino-5-{[4-(3-aminopiperidin-1-yl)-6-butylpyrimidin-2-yl]amino}benzonitrile] | 0.028 nM
CCCCc1cc(N2CCC[C@@H](N)C2)nc(Nc2ccc(N)cc2)n1 [Example 352, (R)—N^1-[4-(3-aminopiperidin-1-yl)-6-butylpyrimidin-2-yl]benzene-1,4-diamine] | 0.029 nM
CCCCc1cc(N2CCC[C@@H](N)C2)nc(Nc2ccc(Cl)c([N+](=O)[O-])c2)n1 [Example 353, (R)-4-(3-aminopiperidin-1-yl)-6-butyl-N-(4-chloro-3-nitrophenyl)pyrimidin-2-amine] | 0.337 nM

Reference: patent US9850227B2 (YUHAN CORPORATION, priority 2011, dated 2017)
